The text below walks through data of ChEMBL document CHEMBL1125069, “Synthesis and antitumor activity of 2-beta-D-ribofuranosyloxazole-4-carboxamide (oxazofurin)” (J Med Chem, 1990).

Usually IC50 stands for the concentration at which inhibition is half-maximal. A lower IC50 goes with inhibition by little substance.

In assay [1] the test system is L1210. The assay can be described thus: In vitro inhibitory activity against L1210 murine lymphocytic leukemia cells; a = inactive until a maximum tested concentration of 4*(10e-3) M. In kind it is functional, cell-based, Mus musculus.
Assay [2] relates to P388. Nature of the assay: In vitro inhibitory activity against P388 murine lymphocytic leukemia cells; a = inactive until a maximum tested concentration of 4*(10e-3) M. The class given is functional, cell-based, Mus musculus.
Assay [3] deals with HL-60. Nature of the assay: In vitro inhibitory activity against HL-60 human promyelocytic leukemia cells until a maximum concentration of 4*(10e-3) M; a = inactive until a maximum tested concentration of 4*(10e-3) M. In kind it is functional, cell-based.
Assay [4] has as its system B16. Nature of the assay: In vitro inhibitory activity against B16 murine melanoma cells. The class given is functional, cell-based. As to conditions: Mus musculus; call rule not given here.
The subject of assay [5] is B16. The assay can be described thus: In vitro inhibitory activity against B16 murine melanoma cells; b = inactive until a maximum tested concentration of […]. The class given is functional, cell-based, Mus musculus.
Assay [6] deals with P388. The assay can be described thus: In vitro inhibitory activity against P388 murine lymphocytic leukemia cells; b = inactive until a maximum tested concentration of 2.5(10e-4) M.
Assay [7] relates to HL-60. The assay can be described thus: In vitro inhibitory activity against HL-60 human promyelocytic leukemia cells; b = inactive until a maximum tested concentration of […]. In kind it is functional, cell-based.
Assay [8] has as its system L1210. The assay can be described thus: In vitro inhibitory activity against L1210 murine lymphocytic leukemia cells; b = inactive until a maximum tested concentration of […]. The class given is functional, cell-based, Mus musculus.
Assay [9] has as its system HL-60. Nature of the assay: In vitro inhibitory activity against HL-60 human promyelocytic leukemia cells. The class given is functional, cell-based.
In assay [10] the test system is L1210. The assay can be described thus: In vitro inhibitory activity against L1210 murine lymphocytic leukemia cells. Conditions: Mus musculus. In kind it is functional, cell-based.
The subject of assay [11] is P388. Nature of the assay: In vitro inhibitory activity against P388 murine lymphocytic leukemia cells. In kind it is functional, cell-based. As to conditions: Mus musculus.

Consider `NC(=O)c1coc([C@@H]2O[C@H](CO)[C@@H](O)[C@H]2O)n1`, for which the IC50 result in [1] was “Inactive until max test conc 4x10^-3M”; in [2] it was “Inactive until max test conc 4x10^-3M”; in assay [3] it was “Inactive until max test conc 4x10^-3M”; in [4] it was 3020 µM.
In the case of `NC(=O)c1nc(-c2ccc(CO)o2)oc1N`, the 50% inhibitory concentration (IC50) result in [5], in [6], in assay [7] and in assay [8] was “Inactive until max test conc 2.5x10^-4M” each time.
`NC(=O)c1coc(-c2ccc(CO)o2)n1`: the IC50 result in [5], in assay [6], in [7] and in [8] was “Inactive until max test conc 2.5x10^-4M” throughout.
Regarding `NC(=O)c1csc([C@@H]2O[C@H](CO)[C@@H](O)[C@H]2O)n1` [TIAZOFURIN], the half-inhibitory concentration (IC50) in [9] came out at 6.1 µM; in assay [10], 6.2 µM; in assay [11], 16.7 µM; in [4] it was 16.2 µM.
